Data from the supplement of paper PMC10307832.

Columns and labels:
Test in all cases: relative viability (nuclei count vs DMSO), 5 days (fraction); higher = more cells survive
BGJ398 + Navitoclax = compound: CCN1CCN(c2ccc(Nc3cc(N(C)C(=O)Nc4c(Cl)c(OC)cc(OC)c4Cl)ncn3)cc2)CC1 [BGJ398] + CC1(C)CCC(c2ccc(Cl)cc2)=C(CN2CCN(c3ccc(C(=O)NS(=O)(=O)c4ccc(N[C@H](CCN5CCOCC5)CSc5ccccc5)c(S(=O)(=O)C(F)(F)F)c4)cc3)CC2)C1 [Navitoclax] (partner 0.5 µM)
Procedure, shortened: (§1)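 Cells from lung cancer lines were seeded into 1536-well plates and, one day later, dosed by pin tool. Treatments were either a single drug or a fixed dose of an anchor drug with five library-drug doses (not always all listed) in √10 steps. After 5 days, nuclei were stained in a one-step fixation (final 0.05% Triton X-100, 1% formaldehyde, 1 ug/ml Hoechst) and counted on 4× images, and relative viability is the treated-to-vehicle nuclei ratio, as the median of duplicate plates.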

BGJ398 + Linsitinib = compound: CCN1CCN(c2ccc(Nc3cc(N(C)C(=O)Nc4c(Cl)c(OC)cc(OC)c4Cl)ncn3)cc2)CC1 [BGJ398] + C[C@]1(O)C[C@@H](c2nc(-c3ccc4ccc(-c5ccccc5)nc4c3)c3c(N)nccn32)C1 [Linsitinib] (partner 1 µM)
Procedure, shortened: as §1

[1] = compound: C1=CC2=NC=CN=C2C=C1/C=C/3\C(=O)NC(=O)S3 + COc1cccc2cc(-c3nc([C@H]4CC[C@H](C(=O)O)CC4)n4ncnc(N)c34)[nH]c12 [OSI-027] (partner 0.5 µM)
Procedure, shortened: as §1

[2] = compound: C1=CC2=NC=CN=C2C=C1/C=C/3\C(=O)NC(=O)S3 + O=C(CCCCCCC(=O)Nc1ccccc1)NO [Vorinostat] (partner 1 µM)
Procedure, shortened: as §1

Cell Line | relative viability (BGJ398 + Navitoclax; first compound 0.01 µM) | relative viability (BGJ398 + Navitoclax; first compound 0.03162 µM) | relative viability (BGJ398 + Navitoclax; first compound 0.1 µM) | relative viability (BGJ398 + Navitoclax; first compound 0.3162 µM) | relative viability (BGJ398 + Navitoclax; first compound 1 µM) | relative viability (BGJ398 + Linsitinib; first compound 0.01 µM) | relative viability (BGJ398 + Linsitinib; first compound 0.03162 µM) | relative viability (BGJ398 + Linsitinib; first compound 0.1 µM) | relative viability (BGJ398 + Linsitinib; first compound 0.3162 µM) | relative viability (BGJ398 + Linsitinib; first compound 1 µM) | relative viability ([1]; first compound 0.02 µM) | relative viability ([1]; first compound 0.06325 µM) | relative viability ([1]; first compound 0.2 µM) | relative viability ([1]; first compound 0.6325 µM) | relative viability ([1]; first compound 2 µM) | relative viability ([2]; first compound 0.02 µM) | relative viability ([2]; first compound 0.06325 µM) | relative viability ([2]; first compound 0.2 µM) | relative viability ([2]; first compound 0.6325 µM) | relative viability ([2]; first compound 2 µM)
NCI-H2405 | 0.806 | 0.926 | 0.969 | 0.941 | 0.872 | 0.863 | 0.892 | 0.982 | 1.07 | 1.01 | 0.644 | 0.698 | 0.648 | 0.6 | 0.225 | 1.04 | 1.14 | 1.11 | 1.08 | 0.526
NCI-H3122 | 0.989 | 1.01 | 1.06 | 0.984 | 1.05 | 1 | 1.06 | 0.997 | 1.05 | 1.02 | 0.935 | 1.16 | 0.89 | 1.03 | 0.46 | 0.926 | 0.981 | 1.03 | 1.07 | 1.05
PC-3 [JPC-3] | 0.756 | – | 0.773 | 0.637 | 0.777 | 1.01 | – | 0.959 | 0.864 | 1.01 | 0.711 | 0.777 | 0.783 | 0.767 | 0.636 | 0.939 | 0.874 | 0.92 | 0.766 | 0.654
PC-14 | 1.01 | 1.05 | 1.06 | 1.04 | 0.998 | 0.902 | 1.05 | 0.902 | 1 | 1.06 | 0.771 | 0.67 | 0.815 | 0.804 | 0.692 | 0.799 | 0.713 | 1.01 | 0.689 | 0.571
RERF-LC-KJ | 0.98 | 1.09 | 0.901 | 1.06 | 0.936 | 0.863 | 0.894 | 0.901 | 0.865 | 0.945 | 0.571 | 0.569 | 0.704 | 0.606 | 0.332 | 0.714 | 0.717 | 0.689 | 0.63 | 0.635
SK-LU-1 | 0.832 | 0.988 | 0.865 | 1.02 | 0.908 | 1.1 | 1.01 | 1.2 | 1.15 | 1.21 | 0.371 | 0.358 | 0.332 | 0.396 | 0.207 | 0.809 | 0.818 | 0.881 | 0.777 | 0.72
SK-MES-1 | 1.27 | 1.32 | 1.24 | 1.33 | 1.24 | 1.01 | 1.12 | 1.09 | 1.01 | 1.11 | 0.658 | 0.467 | 0.715 | 0.577 | 0.392 | 0.925 | 0.998 | 1.08 | 1.08 | 0.829
SW 1573 | 0.82 | 1.22 | 1.05 | 0.981 | 0.91 | 0.859 | 0.894 | 0.886 | 0.812 | 0.933 | 0.63 | 0.946 | 0.725 | 0.532 | 0.312 | 0.519 | 1.09 | 0.658 | 0.868 | 0.444
